Source: patent US12077503B2, “Substituted cyclic amides and their use as herbicides” (FMC CORPORATION, priority 2015, dated 2024)

Key:
Type in all cases: in vivo
[1] = tested on: ragweed (common ragweed, Ambrosia elatior); assay: Test A preemergence; details: Ambrosia artemisiifolia, pre-emergence, 240 h, 0 to 100 scale where 0 is no effect and 100 is complete control, read-out: Ragweed plant response rating; for pest or weed control at 31 g/ha: 31 g ai/ha, Preemergence; for pest or weed control at 125 g/ha: 125 g ai/ha, preemergence, approx. 10 d
Outline: (§1)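 In a loam soil and sand blend, planted seeds got a preemergence directed soil spray, and young plants at the one- to two-leaf stage, 2–10 cm high, got a postemergence application; ~10 d greenhouse hold; injury rated visually, 0 = none, 100 = complete control.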

Kochia (Kochia scoparia) [2] = assay: Test A preemergence; details: Bassia scoparia, pre-emergence, 240 h, 0 to 100 scale where 0 is no effect and 100 is complete control, read-out: Kochia plant response rating; for pest or weed control at 31 g/ha: 31 g ai/ha, Preemergence; for pest or weed control at 125 g/ha: 125 g ai/ha, preemergence, approx. 10 d
Outline: as §1

[3] = tested on: giant foxtail (Setaria faberii); assay: Test A preemergence; details: Setaria faberi, pre-emergence, 240 h, 0 to 100 scale where 0 is no effect and 100 is complete control, read-out: Foxtail, Giant plant response rating; for pest or weed control at 31 g/ha: 31 g ai/ha, Preemergence; for pest or weed control at 125 g/ha: 125 g ai/ha, preemergence, approx. 10 d
Outline: as §1

[4] = tested on: barnyardgrass (Echinochloa crus-galli); assay: Test A preemergence; details: Echinochloa crus-galli, pre-emergence, 240 h, 0 to 100 scale where 0 is no effect and 100 is complete control, read-out: Barnyardgrass plant response rating; for pest or weed control at 31 g/ha: 31 g ai/ha, Preemergence; for pest or weed control at 125 g/ha: 125 g ai/ha, preemergence, approx. 10 d
Outline: as §1

[5] = tested on: pigweed (Amaranthus retroflexus); assay: Test A preemergence; details: Amaranthus retroflexus, pre-emergence, 240 h, 0 to 100 scale where 0 is no effect and 100 is complete control, read-out: Pigweed plant response rating; for pest or weed control at 31 g/ha: 31 g ai/ha, Preemergence; for pest or weed control at 125 g/ha: 125 g ai/ha, preemergence, approx. 10 d
[6] = tested on: ryegrass, Italian (Italian ryegrass, Lolium multiflorum); assay: Test A preemergence; details: Lolium multiflorum, pre-emergence, 240 h, 0 to 100 scale where 0 is no effect and 100 is complete control, read-out: Ryegrass, Italian plant response rating; for pest or weed control at 31 g/ha: 31 g ai/ha, Preemergence; for pest or weed control at 125 g/ha: 125 g ai/ha, preemergence, approx. 10 d
Outline: as §1

[7] = tested on: ragweed (common ragweed, Ambrosia elatior); assay: Test A postemergence; details: Ambrosia artemisiifolia, post-emergence, 240 h; for pest or weed control at 125 g/ha: 125 g ai/ha, postemergence, visual injury on 0 to 100 scale (0 no effect, 100 complete control), approx. 10 d, read-out: Ragweed plant response rating; for pest or weed control at 31 g/ha: Postemergence, 31 g ai/ha, visual injury after approx. 10 d, 0 to 100 scale, 0 no effect, 100 complete control, read-out: Plant response rating, Ragweed
Outline: as §1

Kochia (Kochia scoparia) [8] = assay: Test A postemergence; details: Bassia scoparia, post-emergence, 240 h; for pest or weed control at 125 g/ha: 125 g ai/ha, postemergence, visual injury on 0 to 100 scale (0 no effect, 100 complete control), approx. 10 d, read-out: Kochia plant response rating; for pest or weed control at 31 g/ha: Postemergence, 31 g ai/ha, visual injury after approx. 10 d, 0 to 100 scale, 0 no effect, 100 complete control, read-out: Plant response rating, Kochia
Outline: as §1

corn (Zea mays) = assay: Test A postemergence; details: Zea mays, post-emergence, 240 h; for plant injury at 125 g/ha: 125 g ai/ha, postemergence, visual injury on 0 to 100 scale (0 no effect, 100 complete control), approx. 10 d, read-out: Corn plant response rating; for Corn plant response rating (crop injury, 0 = no effect, 100 = complete kill) at 31 g/ha: Postemergence, 31 g ai/ha, visual injury after approx. 10 d, 0 to 100 scale, 100 complete control
Outline: as §1

[9] = tested on: giant foxtail (Setaria faberii); assay: Test A postemergence; details: Setaria faberi, post-emergence, 240 h; for pest or weed control at 125 g/ha: 125 g ai/ha, postemergence, visual injury on 0 to 100 scale (0 no effect, 100 complete control), approx. 10 d, read-out: Foxtail, Giant plant response rating; for pest or weed control at 31 g/ha: Postemergence, 31 g ai/ha, visual injury after approx. 10 d, 0 to 100 scale, 0 no effect, 100 complete control, read-out: Plant response rating, Foxtail, Giant
Outline: as §1

[10] = tested on: blackgrass (Alopecurus myosuroides); assay: Test A postemergence; details: Alopecurus myosuroides, post-emergence, 240 h; for pest or weed control at 125 g/ha: 125 g ai/ha, postemergence, visual injury on 0 to 100 scale (0 no effect, 100 complete control), approx. 10 d, read-out: Blackgrass plant response rating; for pest or weed control at 31 g/ha: Postemergence, 31 g ai/ha, visual injury after approx. 10 d, 0 to 100 scale, 0 no effect, 100 complete control, read-out: Plant response rating, Blackgrass
Outline: as §1

[11] = tested on: barnyardgrass (Echinochloa crus-galli); assay: Test A postemergence; details: Echinochloa crus-galli, post-emergence, 240 h; for pest or weed control at 125 g/ha: 125 g ai/ha, postemergence, visual injury on 0 to 100 scale (0 no effect, 100 complete control), approx. 10 d, read-out: Barnyardgrass plant response rating; for pest or weed control at 31 g/ha: Postemergence, 31 g ai/ha, visual injury after approx. 10 d, 0 to 100 scale, 0 no effect, 100 complete control, read-out: Plant response rating, Barnyardgrass
Outline: as §1

[12] = tested on: Galium (catchweed bedstraw, Galium aparine); assay: Test A postemergence; details: Galium, post-emergence, 240 h; for pest or weed control at 125 g/ha: 125 g ai/ha, postemergence, visual injury on 0 to 100 scale (0 no effect, 100 complete control), approx. 10 d, read-out: Galium plant response rating; for pest or weed control at 31 g/ha: Postemergence, 31 g ai/ha, visual injury after approx. 10 d, 0 to 100 scale, 0 no effect, 100 complete control, read-out: Plant response rating, Galium
Outline: as §1

[13] = tested on: pigweed (Amaranthus retroflexus); assay: Test A postemergence; details: Amaranthus retroflexus, post-emergence, 240 h; for pest or weed control at 125 g/ha: 125 g ai/ha, postemergence, visual injury on 0 to 100 scale (0 no effect, 100 complete control), approx. 10 d, read-out: Pigweed plant response rating; for pest or weed control at 31 g/ha: Postemergence, 31 g ai/ha, visual injury after approx. 10 d, 0 to 100 scale, 0 no effect, 100 complete control, read-out: Plant response rating, Pigweed
Outline: as §1

[14] = tested on: ryegrass, Italian (Italian ryegrass, Lolium multiflorum); assay: Test A postemergence; details: Lolium multiflorum, post-emergence, 240 h; for pest or weed control at 125 g/ha: 125 g ai/ha, postemergence, visual injury on 0 to 100 scale (0 no effect, 100 complete control), approx. 10 d, read-out: Ryegrass, Italian plant response rating; for pest or weed control at 31 g/ha: Postemergence, 31 g ai/ha, visual injury after approx. 10 d, 0 to 100 scale, 0 no effect, 100 complete control, read-out: Plant response rating, Ryegrass, Italian
Outline: as §1

[15] = tested on: wheat (Triticum aestivum); assay: Test A postemergence; details: Triticum aestivum, post-emergence, 240 h; for plant injury at 125 g/ha: 125 g ai/ha, postemergence, visual injury on 0 to 100 scale (0 no effect, 100 complete control), approx. 10 d, read-out: Wheat plant response rating; for plant injury at 31 g/ha: Postemergence, 31 g ai/ha, visual injury after approx. 10 d, 0 to 100 scale, 0 no effect, 100 complete control, read-out: Plant response rating, Wheat
Outline: as §1

[16] = tested on: sedge, umbrella (small-flower umbrella sedge, Cyperus difformis); assay: Test B flooded paddy test; details: Cyperus difformis, 250 g ai/ha, Flood; 0 to 100 scale where 0 is no effect and 100 is complete control; read-out: Sedge, Umbrella plant response rating
Outline: (§2)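 Flooding to 3 cm over soil accompanied treatment, which consisted of adding compound to the standing water around 2-leaf plants; depth was then maintained. Visual assessment versus controls followed at 13 to 15 d (scale 0–100, 0 meaning no effect).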

[17] = tested on: barnyardgrass (Echinochloa crus-galli); assay: Test B flooded paddy test; details: Echinochloa crus-galli, 250 g ai/ha, Flood; 0 to 100 scale where 0 is no effect and 100 is complete control; read-out: Barnyardgrass plant response rating
Outline: as §2

[18] = tested on: ducksalad (Heteranthera limosa); assay: Test B flooded paddy test; details: Heteranthera limosa, 250 g ai/ha, Flood; 0 to 100 scale where 0 is no effect and 100 is complete control; read-out: Ducksalad plant response rating
Outline: as §2

rice (Oryra sativa) = assay: Test B flooded paddy test; details: Oryza sativa, 250 g ai/ha, Flood; 0 to 100 scale where 0 is no effect and 100 is complete control; read-out: Rice plant response rating
Outline: as §2

Row | Compound | pest or weed control at 31 g/ha [1] [%] | pest or weed control at 125 g/ha [1] [%] | pest or weed control at 31 g/ha (Kochia (Kochia scoparia) [2]) [%] | pest or weed control at 125 g/ha (Kochia (Kochia scoparia) [2]) [%] | pest or weed control at 31 g/ha [3] [%] | pest or weed control at 125 g/ha [3] [%] | pest or weed control at 31 g/ha [4] [%] | pest or weed control at 125 g/ha [4] [%] | pest or weed control at 31 g/ha [5] [%] | pest or weed control at 125 g/ha [5] [%] | pest or weed control at 31 g/ha [6] [%] | pest or weed control at 125 g/ha [6] [%] | pest or weed control at 125 g/ha [7] [%] | pest or weed control at 31 g/ha [7] [%] | pest or weed control at 125 g/ha (Kochia (Kochia scoparia) [8]) [%] | pest or weed control at 31 g/ha (Kochia (Kochia scoparia) [8]) [%] | plant injury at 125 g/ha (corn (Zea mays)) [%] | Corn plant response rating (crop injury, 0 = no effect, 100 = complete kill) at 31 g/ha (corn (Zea mays)) [%] | pest or weed control at 125 g/ha [9] [%] | pest or weed control at 31 g/ha [9] [%] | further results
1 | CN1C[C@H](c2ccc(C(F)(F)F)cn2)[C@@H](C(=O)Nc2ccc(F)c(F)c2F)C1=O [Compound 1106] | 0 | 30 | 0 | 60 | 60 | 90 | 50 | 90 | 0 | 20 | 0 | 0 | 0 | 0 | 60 | 0 | 0 | 0 | 60 | 0 | pest or weed control at 125 g/ha [10]: 0%; pest or weed control at 31 g/ha [10]: 0%; pest or weed control at 125 g/ha [11]: 80%; pest or weed control at 31 g/ha [11]: 30%; pest or weed control at 125 g/ha [12]: 60%; pest or weed control at 31 g/ha [12]: 40%; pest or weed control at 125 g/ha [13]: 20%; pest or weed control at 31 g/ha [13]: 10%; pest or weed control at 125 g/ha [14]: 0%; pest or weed control at 31 g/ha [14]: 0%; plant injury at 125 g/ha [15]: 0%; plant injury at 31 g/ha [15]: 0%; pest or weed control at 250 g/ha [16]: 0%; pest or weed control at 250 g/ha [17]: 70%; pest or weed control at 250 g/ha [18]: 100%; pest or weed control at 250 g/ha (rice (Oryra sativa)): 40%
2 | CON1CC[C@H](c2ccc(C(F)(F)F)cc2)[C@@H](C(=O)Nc2ccc(F)c(F)c2F)C1=O [Compound 1107] | 0 | 0 | 0 | 0 | 0 | 0 | 0 | 0 | 0 | 0 | 0 | 0 | 0 | 0 | 0 | 0 | 0 | 0 | 0 | 0 | pest or weed control at 125 g/ha [10]: 0%; pest or weed control at 31 g/ha [10]: 0%; pest or weed control at 125 g/ha [11]: 0%; pest or weed control at 31 g/ha [11]: 0%; pest or weed control at 125 g/ha [12]: 0%; pest or weed control at 31 g/ha [12]: 0%; pest or weed control at 125 g/ha [13]: 0%; pest or weed control at 31 g/ha [13]: 0%; pest or weed control at 125 g/ha [14]: 0%; pest or weed control at 31 g/ha [14]: 0%; plant injury at 125 g/ha [15]: 0%; plant injury at 31 g/ha [15]: 0%; pest or weed control at 250 g/ha [16]: 0%; pest or weed control at 250 g/ha [17]: 0%; pest or weed control at 250 g/ha [18]: 80%; pest or weed control at 250 g/ha (rice (Oryra sativa)): 0%
